The values that follow come from BindingDB's records for doi:10.1016/j.bmcl.2004.01.021 (Atherogenics, 2004).

The assay deals with T1, Tumor necrosis factor receptor superfamily member 1A (Homo sapiens, UniProt P19438).
T1 sequence (P19438 whole entry): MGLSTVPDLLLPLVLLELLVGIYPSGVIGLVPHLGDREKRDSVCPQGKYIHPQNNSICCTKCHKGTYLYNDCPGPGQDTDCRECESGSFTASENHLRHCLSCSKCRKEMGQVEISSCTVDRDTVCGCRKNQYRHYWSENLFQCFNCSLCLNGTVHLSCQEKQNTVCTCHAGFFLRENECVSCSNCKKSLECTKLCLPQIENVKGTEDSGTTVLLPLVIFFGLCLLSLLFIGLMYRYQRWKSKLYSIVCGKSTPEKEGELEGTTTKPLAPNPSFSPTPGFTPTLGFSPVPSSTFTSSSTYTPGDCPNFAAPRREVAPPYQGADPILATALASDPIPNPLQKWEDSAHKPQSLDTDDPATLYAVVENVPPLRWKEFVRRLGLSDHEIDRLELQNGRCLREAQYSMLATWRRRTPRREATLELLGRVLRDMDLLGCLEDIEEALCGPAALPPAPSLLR
As to the kind of experiment: ChEBML_224214. The text has this: Inhibition of TNF-alpha-induced VCAM-1 expression

As to `COc1ccc(-c2cccs2)cc1/C=C/C(=O)c1ccc(OCc2ccccn2)c(OC)c1` [(E)-1-[3-Methoxy-4-(pyridin-2-ylmethoxy)-phenyl]-3-(2-methoxy-5-thiophen-2-yl-phenyl)-propenone], half-maximal inhibition (IC50) was put at 3000 nM.
The value for `COc1ccc(-c2cccs2)cc1/C=C/C(=O)c1ccc(OCc2cccnc2)c(OC)c1` [(E)-1-[3-Methoxy-4-(pyridin-3-ylmethoxy)-phenyl]-3-(2-methoxy-5-thiophen-2-yl-phenyl)-propenone] was 3000 nM.
The value for `COc1ccc(-c2cccs2)cc1/C=C/C(=O)c1ccc(OCc2ccncc2)c(OC)c1` [(E)-1-[3-Methoxy-4-(pyridin-4-ylmethoxy)-phenyl]-3-(2-methoxy-5-thiophen-2-yl-phenyl)-propenone] was 4000 nM.
The value for `COc1ccc(COc2c(OC)cc(C(=O)/C=C/c3cc(OC)c(OC)c(OC)c3)cc2OC)cc1OC` [(E)-1-[4-(3,4-Dimethoxy-benzyloxy)-3,5-dimethoxy-phenyl]-3-(3,4,5-trimethoxy-phenyl)-propenone] was 2000 nM; that for `COc1ccc(COc2ccc(C(=O)/C=C/c3cc(OC)c(OC)c(OC)c3)cc2OC)cc1OC` [(E)-1-[4-(3,4-Dimethoxy-benzyloxy)-3-methoxy-phenyl]-3-(3,4,5-trimethoxy-phenyl)-propenone] was 2000 nM; that for `COc1ccc(-c2cccs2)cc1/C=C/C(=O)c1ccc(OCc2ccc(N)cc2)c(OC)c1` [(E)-1-[4-(4-Amino-benzyloxy)-3-methoxy-phenyl]-3-(2-methoxy-5-thiophen-2-yl-phenyl)-propenone] was 7000 nM.
Take `COc1cc(/C=C/C(=O)c2cc(OC)c(OCc3ccc4c(c3)OCO4)c(OC)c2)cc(OC)c1OC` [(E)-1-[4-(Benzo[1,3]dioxol-5-ylmethoxy)-3,5-dimethoxy-phenyl]-3-(3,4,5-trimethoxy-phenyl)-propenone]: the IC50 was 3000 nM.
Then `COc1cc(/C=C/C(=O)c2cc(OC)c(OCc3ccco3)c(OC)c2)cc(OC)c1OC` [(E)-1-[4-(Furan-2-ylmethoxy)-3,5-dimethoxy-phenyl]-3-(3,4,5-trimethoxy-phenyl)-propenone], with 3000 nM.
In turn, `COc1cc(OC)c(-c2cccs2)cc1/C=C/C(=O)c1ccc(OC)c(OC)c1OC` [(E)-3-(2,4-Dimethoxy-5-thiophen-2-yl-phenyl)-1-(2,3,4-trimethoxy-phenyl)-propenone] had an IC50 of 2000 nM.
For the compound `COc1cc(OC)c(C(=O)/C=C/c2cc(-c3cccs3)ccc2OC)c(OC)c1` [(E)-3-(2-Methoxy-5-thiophen-2-yl-phenyl)-1-(2,4,6-trimethoxy-phenyl)-propenone], the IC50 turned out to be 3000 nM.
The value for `COc1ccc(-c2cccs2)cc1/C=C/C(=O)c1cc(OC)c(OC)c(OC)c1` [(E)-3-(2-Methoxy-5-thiophen-2-yl-phenyl)-1-(3,4,5-trimethoxy-phenyl)-propenone] was 3000 nM.
On to `COc1ccc(-c2cccs2)cc1/C=C/C(=O)c1ccccc1` [(E)-3-(2-Methoxy-5-thiophen-2-yl-phenyl)-1-phenyl-propenone], for which the IC50 stood at 5000 nM.
Then `COc1cc(-c2cccs2)ccc1C(=O)/C=C/c1ccc(F)c(F)c1` [(E)-3-(3,4-Difluoro-phenyl)-1-(2-methoxy-4-thiophen-2-yl-phenyl)-propenone], with 2000 nM; and `COc1ccc(C(=O)/C=C/c2ccc(OC)c(OC)c2)cc1` [(E)-3-(3,4-Dimethoxy-phenyl)-1-(4-methoxy-phenyl)-propenone], with 15000 nM.
In turn, `CCOc1cc(OCC)c(C(=O)/C=C/c2cc(Br)c(OC)c(OC)c2)cc1OCC` [(E)-3-(3-Bromo-4,5-dimethoxy-phenyl)-1-(2,4,5-triethoxy-phenyl)-propenone] came in with an IC50 of 15000 nM.
The value for `COc1cc(OC)c(C(=O)/C=C/c2cc(Br)c(OC)c(OC)c2)cc1OC` [(E)-3-(3-Bromo-4,5-dimethoxy-phenyl)-1-(2,4,5-trimethoxy-phenyl)-propenone] was 2000 nM.
